Paper PMC4483627 (Marine Drugs, 2015)
Read-outs that look alike come from different tables or passages of the source. Positions of bridges follow the written chain, without caps; N, C: chain ends. Residues, ends and D or L forms follow the SMILES beside them.

Assays:
rat nAChR α3β2 [1] = target: T1, rat nAChR α3β2 (Rattus norvegicus, UniProt P04757+P12390); assay: cell-based; format: cell-based
T1 construct: expressed in transfected cells; host or cells: Xenopus oocytes injected with cRNA

rat nAChR α9α10 = target: T2, rat nAChR α9α10 (Rattus norvegicus, UniProt P43144+Q9JLB5); assay: cell-based
T2 construct: expressed in transfected cells; host or cells: Xenopus oocytes injected with cRNA

rat nAChR α3β4 = target: T3, rat nAChR α3β4 (Rattus norvegicus, UniProt P04757+P12392); assay: cell-based
T3 construct: expressed in transfected cells; host or cells: Xenopus oocytes injected with cRNA

rat nAChR α7 = target: T4, rat nAChR α7 (Rattus norvegicus, UniProt Q05941); assay: cell-based
T4 construct: expressed in transfected cells; host or cells: Xenopus oocytes injected with cRNA

rat nAChR α2β4 = target: T5, rat nAChR α2β4 (Rattus norvegicus, UniProt P12389+P12392); assay: cell-based; conditions: IC50 α2β4
T5 construct: expressed in transfected cells; host or cells: Xenopus oocytes injected with cRNA

rat nAChR α2β2 = target: T6, rat nAChR α2β2 (Rattus norvegicus, UniProt P12389+P12390); assay: cell-based
T6 construct: expressed in transfected cells; host or cells: Xenopus oocytes injected with cRNA

rat nAChR α4β2 = target: T7, rat nAChR α4β2 (Rattus norvegicus, UniProt P09483+P12390); assay: cell-based
T7 construct: expressed in transfected cells; host or cells: Xenopus oocytes injected with cRNA

rat nAChR α4β4 = target: T8, rat nAChR α4β4 (Rattus norvegicus, UniProt P09483+P12392); assay: cell-based
T8 construct: expressed in transfected cells; host or cells: Xenopus oocytes injected with cRNA

rat nAChR α6/α3β2β3 = target: T9, rat nAChR α6/α3β2β3 (Rattus norvegicus, UniProt P04757+P12390+P12391+P43143); assay: cell-based
T9 construct: expressed in transfected cells; host or cells: Xenopus oocytes injected with cRNA

rat nAChR α3β2 [2] = target: T1, rat nAChR α3β2; assay: cell-based; format: cell-based; remark: listed apart in the source
rat nAChR α3β2 [3] = target: T1, rat nAChR α3β2; conditions: cited from earlier work

T1 sequence (P04757 26-499 limits assumed): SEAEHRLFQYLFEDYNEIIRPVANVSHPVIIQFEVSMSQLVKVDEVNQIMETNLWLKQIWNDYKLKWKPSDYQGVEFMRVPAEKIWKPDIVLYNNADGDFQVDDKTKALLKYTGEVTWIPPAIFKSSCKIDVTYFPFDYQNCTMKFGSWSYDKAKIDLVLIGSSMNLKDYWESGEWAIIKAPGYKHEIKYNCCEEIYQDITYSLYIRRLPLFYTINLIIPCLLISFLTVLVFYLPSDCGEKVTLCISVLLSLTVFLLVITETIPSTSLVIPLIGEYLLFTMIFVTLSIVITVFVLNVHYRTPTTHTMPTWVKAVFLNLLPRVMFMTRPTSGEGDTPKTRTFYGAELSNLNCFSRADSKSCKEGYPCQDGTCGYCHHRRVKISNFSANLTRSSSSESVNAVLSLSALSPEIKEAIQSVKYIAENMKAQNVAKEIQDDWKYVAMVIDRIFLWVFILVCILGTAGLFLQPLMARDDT
T1 sequence (P12390 25-500 limits assumed): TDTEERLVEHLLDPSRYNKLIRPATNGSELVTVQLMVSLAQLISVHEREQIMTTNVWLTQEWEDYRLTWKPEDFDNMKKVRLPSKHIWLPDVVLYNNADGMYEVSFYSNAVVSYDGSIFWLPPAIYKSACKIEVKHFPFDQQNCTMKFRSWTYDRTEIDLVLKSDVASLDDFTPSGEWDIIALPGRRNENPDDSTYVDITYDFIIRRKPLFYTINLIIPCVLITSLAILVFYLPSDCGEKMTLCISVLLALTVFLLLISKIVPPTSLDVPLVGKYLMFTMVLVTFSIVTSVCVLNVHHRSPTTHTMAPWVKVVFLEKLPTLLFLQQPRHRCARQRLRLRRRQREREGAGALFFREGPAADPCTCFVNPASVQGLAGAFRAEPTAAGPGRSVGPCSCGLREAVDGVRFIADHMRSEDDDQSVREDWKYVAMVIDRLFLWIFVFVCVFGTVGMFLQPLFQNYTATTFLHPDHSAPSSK
T4 sequence (Q05941 23-502 limits assumed): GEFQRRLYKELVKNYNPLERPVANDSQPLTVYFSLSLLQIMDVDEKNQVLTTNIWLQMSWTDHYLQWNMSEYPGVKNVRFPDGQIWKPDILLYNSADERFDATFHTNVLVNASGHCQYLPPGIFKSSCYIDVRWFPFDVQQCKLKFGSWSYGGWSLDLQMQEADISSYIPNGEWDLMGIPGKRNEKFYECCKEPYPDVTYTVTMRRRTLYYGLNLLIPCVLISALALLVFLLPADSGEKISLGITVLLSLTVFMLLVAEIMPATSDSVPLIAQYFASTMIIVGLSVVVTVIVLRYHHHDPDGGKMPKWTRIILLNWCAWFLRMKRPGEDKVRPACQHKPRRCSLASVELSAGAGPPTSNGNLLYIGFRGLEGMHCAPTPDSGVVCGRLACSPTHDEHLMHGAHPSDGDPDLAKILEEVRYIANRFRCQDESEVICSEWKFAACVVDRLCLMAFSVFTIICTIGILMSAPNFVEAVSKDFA
T2 sequence (P43144 26-479 limits assumed): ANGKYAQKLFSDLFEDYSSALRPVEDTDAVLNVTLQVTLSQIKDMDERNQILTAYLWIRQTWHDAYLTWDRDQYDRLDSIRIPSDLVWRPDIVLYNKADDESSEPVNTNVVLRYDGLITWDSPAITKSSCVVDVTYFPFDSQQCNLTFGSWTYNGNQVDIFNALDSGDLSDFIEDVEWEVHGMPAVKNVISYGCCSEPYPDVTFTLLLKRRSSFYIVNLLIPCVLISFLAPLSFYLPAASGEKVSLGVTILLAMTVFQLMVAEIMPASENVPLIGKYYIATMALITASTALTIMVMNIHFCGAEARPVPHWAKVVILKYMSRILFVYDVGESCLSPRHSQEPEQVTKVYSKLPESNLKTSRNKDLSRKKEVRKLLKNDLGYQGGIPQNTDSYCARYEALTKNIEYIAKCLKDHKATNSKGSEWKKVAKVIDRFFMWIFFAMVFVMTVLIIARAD
T2 sequence (Q9JLB5 25-447 limits assumed): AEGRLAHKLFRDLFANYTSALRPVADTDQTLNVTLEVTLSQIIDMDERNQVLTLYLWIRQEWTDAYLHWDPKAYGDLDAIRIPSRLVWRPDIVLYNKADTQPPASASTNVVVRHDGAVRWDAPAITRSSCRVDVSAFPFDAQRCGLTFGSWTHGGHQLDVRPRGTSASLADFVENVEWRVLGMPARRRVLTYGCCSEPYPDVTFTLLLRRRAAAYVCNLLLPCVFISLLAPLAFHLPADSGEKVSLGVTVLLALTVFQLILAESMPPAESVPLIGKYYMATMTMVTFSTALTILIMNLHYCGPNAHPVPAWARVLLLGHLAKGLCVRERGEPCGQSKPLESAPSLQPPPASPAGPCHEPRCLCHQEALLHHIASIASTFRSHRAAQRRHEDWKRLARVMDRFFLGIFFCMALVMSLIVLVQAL
T8 sequence (P09483 31-630 limits assumed): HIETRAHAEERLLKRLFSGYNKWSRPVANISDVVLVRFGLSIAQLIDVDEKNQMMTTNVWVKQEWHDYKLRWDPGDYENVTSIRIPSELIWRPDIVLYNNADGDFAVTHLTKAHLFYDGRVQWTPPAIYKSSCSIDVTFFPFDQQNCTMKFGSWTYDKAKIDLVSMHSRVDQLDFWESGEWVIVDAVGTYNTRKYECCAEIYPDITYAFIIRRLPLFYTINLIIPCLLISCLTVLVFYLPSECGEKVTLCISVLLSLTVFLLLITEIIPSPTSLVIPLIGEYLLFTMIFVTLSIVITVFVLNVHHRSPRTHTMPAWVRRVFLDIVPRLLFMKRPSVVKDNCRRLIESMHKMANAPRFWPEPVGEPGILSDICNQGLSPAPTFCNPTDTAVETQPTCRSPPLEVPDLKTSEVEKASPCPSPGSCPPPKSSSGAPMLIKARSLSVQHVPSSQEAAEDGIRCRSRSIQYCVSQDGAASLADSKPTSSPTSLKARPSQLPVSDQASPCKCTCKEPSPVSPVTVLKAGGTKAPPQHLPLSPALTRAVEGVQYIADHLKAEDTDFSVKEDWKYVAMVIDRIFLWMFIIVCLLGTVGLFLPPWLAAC
T8 sequence (P12392 21-495 limits assumed): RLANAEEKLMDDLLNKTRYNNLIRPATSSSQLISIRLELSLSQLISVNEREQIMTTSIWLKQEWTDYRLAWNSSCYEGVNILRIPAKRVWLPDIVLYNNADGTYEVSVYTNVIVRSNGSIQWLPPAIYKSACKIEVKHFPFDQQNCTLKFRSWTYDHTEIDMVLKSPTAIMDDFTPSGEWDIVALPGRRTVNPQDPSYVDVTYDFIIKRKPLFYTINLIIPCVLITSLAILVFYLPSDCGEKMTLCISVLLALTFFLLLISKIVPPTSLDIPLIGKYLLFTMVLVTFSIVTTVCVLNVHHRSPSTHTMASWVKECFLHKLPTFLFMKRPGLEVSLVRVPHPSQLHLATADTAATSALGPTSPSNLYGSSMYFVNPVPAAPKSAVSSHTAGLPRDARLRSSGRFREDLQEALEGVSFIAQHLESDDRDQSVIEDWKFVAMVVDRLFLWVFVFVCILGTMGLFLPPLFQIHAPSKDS
T7 sequence (P09483 31-630 limits assumed): as the sequence (P09483 31-630 limits assumed) above
T7 sequence (P12390 25-500 limits assumed): as the sequence (P12390 25-500 limits assumed) above
T5 sequence (P12389 28-511 limits assumed): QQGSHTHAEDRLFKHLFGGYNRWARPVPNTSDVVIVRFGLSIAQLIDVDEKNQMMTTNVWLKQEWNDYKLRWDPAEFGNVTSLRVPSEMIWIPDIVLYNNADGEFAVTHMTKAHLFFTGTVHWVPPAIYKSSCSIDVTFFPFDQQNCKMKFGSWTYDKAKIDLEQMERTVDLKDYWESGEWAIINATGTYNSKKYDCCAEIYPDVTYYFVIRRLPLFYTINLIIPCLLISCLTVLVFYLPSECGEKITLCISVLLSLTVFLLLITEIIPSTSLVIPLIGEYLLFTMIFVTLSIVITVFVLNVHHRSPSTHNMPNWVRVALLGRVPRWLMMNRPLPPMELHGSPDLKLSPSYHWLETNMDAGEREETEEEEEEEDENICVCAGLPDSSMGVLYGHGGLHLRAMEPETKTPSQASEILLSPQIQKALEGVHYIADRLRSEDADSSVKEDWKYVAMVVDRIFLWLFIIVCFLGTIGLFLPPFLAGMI
T5 sequence (P12392 21-495 limits assumed): as the sequence (P12392 21-495 limits assumed) above
T6 sequence (P12389 28-511 limits assumed): as the sequence (P12389 28-511 limits assumed) above
T6 sequence (P12390 25-500 limits assumed): as the sequence (P12390 25-500 limits assumed) above
T3 sequence (P04757 26-499 limits assumed): as the sequence (P04757 26-499 limits assumed) above
T3 sequence (P12392 21-495 limits assumed): as the sequence (P12392 21-495 limits assumed) above

Compound | IC50 (rat nAChR α3β2 [1]) [µM] | IC50 (rat nAChR α9α10) [µM] | IC50 (rat nAChR α3β4) [µM] | IC50 (rat nAChR α7) [µM] | IC50 (rat nAChR α2β4) [µM] | IC50 (rat nAChR α2β2) [µM] | IC50 (rat nAChR α4β2) [µM] | IC50 (rat nAChR α4β4) [µM] | IC50 (rat nAChR α6/α3β2β3) [µM] | kon (rat nAChR α3β2 [2]) [M⁻¹ s⁻¹] | koff (rat nAChR α3β2 [2]; SEM) [s⁻¹] | IC50 (rat nAChR α3β2 [3]) [µM]
CC(C)C[C@@H]1NC(=O)[C@H](CCC(=O)O)NC(=O)[C@@H]2CCCN2C(=O)[C@H](CC(N)=O)NC(=O)[C@H](CO)NC(=O)[C@H](C(C)C)NC(=O)[C@H](Cc2c[nH]cn2)NC(=O)[C@@H]2CSSC[C@H](NC(=O)[C@H](CCC(=O)O)NC(=O)[C@@H]3CCCN3)C(=O)N[C@@H](CSSC[C@@H](C(N)=O)NC1=O)C(=O)N[C@@H]([C@@H](C)O)C(=O)N[C@@H](Cc1c[nH]cn1)C(=O)N1CCC[C@H]1C(=O)N[C@@H](C)C(=O)N2 [Mr1.7[H13N]] (H-PECCTHPACHVSNPELC-NH2; disulfide 3-9, 4-17) | 0.541 | 1.83 | > 10 | 2.42 | > 10 | > 10 | > 10 | > 10 | – | – | – | –
CC(C)C[C@@H]1NC(=O)[C@H](CCC(=O)O)NC(=O)[C@@H]2CCCN2C(=O)[C@H](Cc2c[nH]cn2)NC(=O)[C@H](CO)NC(=O)[C@H](C(C)C)NC(=O)[C@H](Cc2c[nH]cn2)NC(=O)[C@@H]2CSSC[C@H](NC(=O)[C@H](CCC(=O)O)NC(=O)[C@@H]3CCCN3)C(=O)N[C@@H](CSSC[C@@H](C(N)=O)NC1=O)C(=O)N[C@@H]([C@@H](C)O)C(=O)N[C@@H](Cc1c[nH]cn1)C(=O)N1CCC[C@H]1C(=O)N[C@@H](C)C(=O)N2 [Mr1.7] (H-PECCTHPACHVSHPELC-NH2; disulfide 3-9, 4-17) | – | 0.186 | > 10 | > 10 | > 10 | > 10 | > 10 | > 10 | 0.284 | 91300 | 0.00312 | –
Vc1.1 | – | – | – | – | – | – | – | – | – | – | – | 5.53
